Experiments:
[1] = target: human NEP (Homo sapiens (Human), UniProt P08473); assay: In vitro enzyme inhibition assay at human NEP; settings: recombinant human NEP, fluorogenic peptide substrate, 37° C.; for Ki: pKi
[2] = Rat PO cassette assay (oral bioavailability); type: in vivo, Sprague-Dawley rats; settings: male, Sprague-Dawley, plasma, single oral gavage vs intravenous dose, 0.5 mg/kg
Text: Oral bioavailability, or % F, is a measure of the percentage of a drug in an oral dose that actually reaches the systemic circulation. Compound losses can occur due to incomplete formulation dissolution, incomplete absorption due to compound insolubility or instability along the GI, or metabolism in the gut or across the gut wall. The fraction of the dose which reaches the hepatic portal vein must also then pass through the liver before reaching the systemic circulation. Compound metabolism, or “first-pass extraction,” can occur during this initial passage through the liver, and this is an additional potential source of compound loss. Oral bioavailability is calculated as the dose-normalized ratio of drug exposure after an oral dose to that after an intravenous dose, wherein the entire dose is delivered directly to the systemic circulation.
Each cassette study begins with 10 mM DMSO stock solutions of up to 5 different compounds. Typically, compounds are selected such no two compounds dosed in the same cassette have a molecular weight within 5 Da of each other. This simplifies subsequent bioanalysis. Appropriate volumes of each DMSO stock are added into a volume of vehicle (5% sodium bicarbonate, 5% dextrose in H2O) such that the final concentration of each compound is 0.25 mg/mL. Intravenous dosing solutions are sterile-filtered (0.2 μm) prior to dosing.
Pre-cannulated male Sprague-Dawley rats (3 per cassette per route) between 8 and 10 weeks of age were obtained from Harlan Laboratories (Indianapolis, Ind.). Rats received either a single oral gavage or a single intravenous (via lateral tail vein) dose (2 mL/kg) of the dosing solution. The final dose was 0.5 mg/kg. Serial blood samples were harvested via jugular vein cannula at 3 minutes, 15 minutes, 30 minutes, 1 hours, 2 hours, 4 hours, 6 hours, and 24 hours post-dose. Sampling was performed either manually or using automated blood samplers. Samples were collected into microtainer tubes containing EDTA as the anticoagulant and are processed to plasma by refrigerated centrifugation.
Plasma samples were extracted with 3 volumes of MeCN containing a suitable internal standard. Extracts were reconstituted into 3 volumes of water containing 1% formic acid, and analyzed via HPLC-coupled MS/MS. Plasma concentration-time data were analyzed using the Phoenix software (Pharsight Corp., St. Louis, Mo.) to calculate pharmacokinetic parameters.
Compounds of the invention of particular interest were those having a % F>10%, when tested in this assay.

Chain of human NEP (P08473 52-750): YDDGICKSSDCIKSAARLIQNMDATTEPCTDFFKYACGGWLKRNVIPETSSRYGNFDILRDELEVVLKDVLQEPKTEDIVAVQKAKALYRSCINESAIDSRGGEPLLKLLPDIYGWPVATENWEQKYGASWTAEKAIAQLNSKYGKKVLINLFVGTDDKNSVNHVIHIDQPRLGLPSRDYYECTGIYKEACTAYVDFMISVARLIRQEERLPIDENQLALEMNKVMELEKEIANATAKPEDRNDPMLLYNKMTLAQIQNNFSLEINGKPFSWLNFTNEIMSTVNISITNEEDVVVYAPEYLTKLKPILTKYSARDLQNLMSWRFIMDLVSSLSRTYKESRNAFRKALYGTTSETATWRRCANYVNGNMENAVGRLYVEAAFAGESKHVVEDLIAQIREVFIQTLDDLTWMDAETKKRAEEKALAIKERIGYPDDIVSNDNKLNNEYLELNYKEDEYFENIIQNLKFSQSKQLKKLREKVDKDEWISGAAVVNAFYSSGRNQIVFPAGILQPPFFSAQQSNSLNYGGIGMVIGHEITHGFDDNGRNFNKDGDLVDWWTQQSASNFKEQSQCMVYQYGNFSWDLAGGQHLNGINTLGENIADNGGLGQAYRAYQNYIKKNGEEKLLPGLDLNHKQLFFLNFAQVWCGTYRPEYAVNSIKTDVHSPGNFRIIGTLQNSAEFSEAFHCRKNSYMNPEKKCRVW

## CCOC(=O)[C@H](N)C[C@@H](Cc1ccc(-c2cc(Cl)ccc2F)cc1)NC(=O)c1cc(C(C)=O)n[nH]1 [Example 16-10, (2R,4R)-4-[(5-Acetyl-2H-pyrazole-3-carbonyl)amino]-2-amino-5-(5′-chloro-2′-fluoro-biphenyl-4-yl)pentanoic acid ethyl ester]
[1]
  Ki: 10 to 31.6 nM
[2]
  bioavailability: > 10%

## Cc1ccccc1-c1n[nH]c(C(=O)N[C@H](Cc2ccc(-c3cc(Cl)ccc3F)cc2)C[C@@H](N)C(=O)O)c1F [Example 16-23, (2R,4R)-2-Amino-5-(5′-chloro-2′-fluorobiphenyl-4-yl)-4-[(4-fluoro-5-o-tolyl-2H-pyrazole-3-carbonyl)amino]pentanoic acid]
[1]
  pKi: ≧9.0
[2]
  bioavailability: > 10%

## N[C@H](C[C@@H](Cc1ccc(-c2cc(Cl)ccc2F)cc1)NC(=O)c1cc(-c2ccccc2Cl)no1)C(=O)O [Example 16-24, (2R,4R)-2-Amino-5-(5′-chloro-2′-fluorobiphenyl-4-yl)-4-{[3-(2-chlorophenyl)-isoxazole-5-carbonyl]amino}pentanoic acid]
[1]
  pKi: ≧9.0
[2]
  bioavailability: > 10%

## CCc1cc(C(=O)N[C@H](Cc2ccc(-c3cc(Cl)ccc3F)cc2)C[C@@H](CN)C(=O)O)on1 [Example 21-1, (2S,4S)-2-Aminomethyl-5-(5′-chloro-2′-fluorobiphenyl-4-yl)-4-[(3-ethylisoxazole-5-carbonyl)amino]pentanoic acid]
[1]
  pKi: ≧9.0
[2]
  bioavailability: > 10%

## CCc1cc(C(=O)N[C@H](Cc2ccc(-c3cc(Cl)ccc3F)cc2)C[C@@H](NC(=O)OC)C(=O)O)on1 [Example 29, (2R,4R)-5-(5′-Chloro-2′-fluorobiphenyl-4-yl)-4-[(3-ethylisoxazole-5-carbonyl)amino]-2-methoxycarbonylaminopentanoic Acid]
[1]
  Ki: ≤ 1 nM
[2]
  bioavailability: > 10%

## COC(=O)N[C@H](C[C@@H](Cc1ccc(-c2cc(Cl)ccc2F)cc1)NC(=O)c1ncc(C)o1)C(=O)O [Example 30-4, (2R,4R)-5-(5′-Chloro-2′-fluorobiphenyl-4-yl)-2-methoxycarbonylamino-4-[(5-methyloxazole-2-carbonyl)amino]pentanoic acid]
[1]
  pKi: ≧9.0
[2]
  bioavailability: > 10%

## CCc1nc(C(=O)N[C@H](Cc2ccc(-c3cc(Cl)ccc3F)cc2)C[C@@H](NC(=O)OC)C(=O)O)co1 [Example 30-6, (2R,4R)-5-(5′-Chloro-2′-fluorobiphenyl-4-yl)-4-[(2-ethyl-oxazole-4-carbonyl)amino]-2-methoxycarbonylaminopentanoic acid]
[1]
  pKi: ≧9.0
[2]
  bioavailability: > 10%

## COC(=O)N[C@H](C[C@@H](Cc1ccc(-c2cc(Cl)ccc2F)cc1)NC(=O)c1ccc(Cl)cn1)C(=O)O [Example 30-12, (2R,4R)-5-(5′-Chloro-2′-fluorobiphenyl-4-yl)-4-[(5-chloro-pyridine-2-carbonyl)-amino]-2-methoxycarbonylaminopentanoic acid]
[1]
  pKi: ≧9.0
[2]
  bioavailability: > 10%

Reference: patent publication US9593110B2, “Neprilysin inhibitors” (Theravence Biopharma R&D IP, LLC, priority 2014, dated 2017)
